Assay [1] deals with HCT116 MTAP-deleted cells. In words: Cell viability assay (CellTiter-Glo, 7 days), HCT116 MTAP-deleted. The note with it: Homo sapiens, HCT-116, 168 h. On the technique in general: Cellular ATP, detected with luciferase, serves as a proxy for viable cell number.
The subject of assay [2] is SDMA signal (PRMT5 inhibition) in HCT116 MTAP-deleted cells. As to the kind of experiment: Symmetric di-methyl arginine image-based high content screen assay (SDMA assay), HCT116 MTAP-deleted. The assay is classed as cell-based. The note with it: for EC50: Homo sapiens, HCT-116, 72 h, read-out: EC50 (SDMA assay); for EC50 selectivity (SDMA assay): taken as HCT116 WT versus MTAP-deleted. The protocol: Symmetric di-methyl arginine image-based high content screen assay (SDMA assay) was performed in HCT116 WT and HCT116 MTAP-deleted cell lines to measure Symmetric Di-methyl Arginine (SDMA) signal reduction after selective PRMT5 inhibition in the MTAP-deleted cells.
Briefly, the same compound plates were generated as mentioned in the previous section of Cell viability assay on Day −1.
On Day 3, the cells were fixed by adding 45 μl of 8% neutralized formalin solution to each well using EL460 liquid dispenser 5 μl cassette and the cells were incubated for 30 minutes at room temperature. The formalin solution was washed off with […] phosphate buffered saline (dPBS), the 0.1% Triton X-100 solution in dPBS was used to permeabilize the cells for 15 minutes at room temperature. The triton solution was aspirated, 50 μl of Odyssey Blocking buffer+0.05% Tween20 was added and the plate was incubated at room temperature for 30 minutes.
The blocking solution was removed, a 20 μl of SDMA antibody (Cell Signaling Technology, Cat no. 13222) diluted 1:500 in Odyssey Blocking buffer+0.05% Tween20 was added and the plate was incubated at 4° C. overnight. Next day, the primary SDME antibody solution was washed from each well three times with 0.05% Tween20 in dPBS (PBST).
A 30 μl of the secondary antibody, a Goat anti-Rabbit Alexa Fluor Plus 488 (Invitrogen, Cat no. PIA32731) was diluted 1:500 in Odyssey Blocking buffer+0.05% Tween20 and the plate was incubated for 1.5 hours in dark at room temperature. The secondary antibody solution was removed, 30 μl of 5 mg/ml DAPI solution diluted 1:2000 in dPBS was added and the plate was incubated for 30 minutes in dark at room temperature. The DAPI solution was aspirated and the wells were washed six times with dPBS.
The SDMA signal and DAPI signal per cell were counted using a Cellomics CX7 LZR instrument reading under 488 and 405 nm laser, respectively. The SDMA signal was quantified by mean average intensity per cell from Alexa Fluor Plus 488 after the cell was defined with DAPI.

[3] abbreviates: SDMA assay, 3 days of treatment, cell line not given, taken as HCT116 MTAP-deleted.

Each structure is given as a SMILES string. Like-named read-outs stand apart in the source and are kept apart here. Bounds are passed on as bounds.

The term CC50 denotes the concentration at which the toxic effect on the cells reaches its halfway point. As a reminder, the EC50 is the midpoint of the concentration-response curve. As for `C[C@H]1CN(N(Cc2ccc(C(F)(F)F)cn2)C(=O)c2ccc3nc(N)c4cnn(C)c4c3c2)C(=O)O1` (single isomer, unassigned) [Example 8], in assay [1], the CC50 was less than 100 nM. Further, the EC50 in assay [2] (setting [3]) is less than 1 nM. Also, the “EC50 selectivity (SDMA assay)” value in assay [2] (SDMA assay) worked out at 137.
The matching figures for `C[C@@H]1CN(N(Cc2ccc(C(F)(F)F)cn2)C(=O)c2ccc3nc(N)c4cnn(C)c4c3c2)C(=O)O1` (single isomer, unassigned) [Example 9]: less than 100 nM, less than 1 nM and 180.
Taken in the same sequence, the figures for `CC(=O)N(C)N(Cc1nc2cc(C(F)(F)F)ccc2s1)C(=O)c1ccc2nc(N)c3cnn(C)c3c2c1` [Example 1] were less than 100 nM, less than 1 nM and 122.
The matching figures for `Cn1ncc2c(N)nc3ccc(C(=O)N(Cc4ccc(C(F)(F)F)cc4F)N4CCCCC4=O)cc3c21` [Example 2, 4-amino-N-(2-fluoro-4-(trifluoromethyl)benzyl)-1-methyl-N-(2-oxopiperidin-1-yl)-1H-pyrazolo[4,3-c]quinoline-8-carboxamide]: less than 100 nM, less than 1 nM and 25.
Regarding `Cn1ncc2c(N)nc3ccc(C(=O)N(Cc4ccc(C(F)(F)F)cc4)N4CCCOC4=O)cc3c21` [Example 3, 4-amino-1-methyl-N-(2-oxo-1,3-oxazinan-3-yl)-N-(4-(trifluoromethyl)benzyl)-1H-pyrazolo[4,3-c]quinoline-8-carboxamide], the CC50 in assay [1] is less than 100 nM. The EC50 in assay [2] (setting [3]) was less than 1 nM. In addition, in assay [2] (SDMA assay), the “EC50 selectivity (SDMA assay)” value came to 123.
The matching figures for `Cn1ncc2c(N)nc3ccc(C(=O)N(Cc4ccc(C(F)(F)F)cn4)N4CCN(CC(F)(F)F)C4=O)cc3c21` [Example 4, 4-amino-1-methyl-N-(2-oxo-3-(2,2,2-trifluoroethyl)imidazolidin-1-yl)-N-((5-(trifluoromethyl)pyridin-2-yl)methyl)-1H-pyrazolo [4,3-c]quinoline-8-carboxamide]: less than 100 nM, 1 to 5 nM and 327.
`Cn1ncc2c(N)nc3ccc(C(=O)N(Cc4ccc(OC(F)F)cc4)N4CCCOC4=O)cc3c21` [Example 5, 4-amino-N-(4-(difluoromethoxy)benzyl)-1-methyl-N-(2-oxo-1,3-oxazinan-3-yl)-1H-pyrazolo[4,3-c]quinoline-8-carboxamide]: the CC50 in assay [1] is less than 100 nM. The EC50 in assay [2] (setting [3]) was less than 1 nM. For the same compound, the “EC50 selectivity (SDMA assay)” value in assay [2] (SDMA assay) is 266.
With `CC(=O)N(c1ccccc1)N(Cc1ccc(C(F)(F)F)cn1)C(=O)c1ccc2nc(N)c3cnn(C)c3c2c1` [Example 6, N′-acetyl-4-amino-1-methyl-N′-phenyl-N-((5-(trifluoromethyl)pyridin-2-yl)methyl)-1H-pyrazolo[4,3-c]quinoline-8-carbohydrazide], in assay [1], the CC50 is less than 100 nM. The EC50 in assay [2] (setting [3]) was less than 1 nM. Besides, the “EC50 selectivity (SDMA assay)” value in assay [2] (SDMA assay) is listed as 286.
The matching figures for `CN1CCN(N(Cc2ccc(C(F)(F)F)cc2F)C(=O)c2ccc3nc(N)c4cnn(C)c4c3c2)C1=O` [Example 7, 4-amino-N-(2-fluoro-4-(trifluoromethyl)benzyl)-1-methyl-N-(3-methyl-2-oxoimidazolidin-1-yl)-1H-pyrazolo[4,3-c]quinoline-8-carboxamide]: less than 100 nM, less than 1 nM and 62.
Taken in the same sequence, the figures for `Cn1ncc2c(N)nc3ccc(C(=O)N(Cc4ccc(C(F)(F)F)cn4)N4CCCOC4=O)cc3c21` [Example 10, 4-amino-1-methyl-N-(2-oxo-1,3-oxazinan-3-yl)-N-((5-(trifluoromethyl)pyridin-2-yl)methyl)-1H-pyrazolo[4,3-c]quinoline-8-carboxamide] were less than 100 nM, less than 1 nM and 180.
The matching figures for `Cn1ncc2c(N)nc3ccc(C(=O)N(Cc4ccc(C(F)(F)F)cn4)N4C(=O)[C@H]5CC[C@@H]4C5)cc3c21` [Example 11, 4-amino-1-methyl-N-[(1R,4S)-3-oxo-2-azabicyclo[2.2.1]heptan-2-yl]-N-[[5-(trifluoromethyl)-2-pyridyl]methyl]pyrazolo[4,3-c]quinoline-8-carboxamide]: less than 100 nM, less than 1 nM and 245.
The compound `Cn1ncc2c(N)nc3ccc(C(=O)N(Cc4ccc(C(F)(F)F)cn4)N4CC(F)(F)CCC4=O)cc3c21` [Example 13, 4-amino-N-(5,5-difluoro-2-oxo-1-piperidyl)-1-methyl-N-[[5-(trifluoromethyl)-2-pyridyl]methyl]pyrazolo[4,3-c]quinoline-8-carboxamide] displayed a CC50 in assay [1] of less than 100 nM. Also, the EC50 in assay [2] (setting [3]) is less than 1 nM. Also, the “EC50 selectivity (SDMA assay)” value in assay [2] (SDMA assay) is recorded as 128.
`CN(C(=O)Oc1ccccc1)N(Cc1ccc(C(F)(F)F)cn1)C(=O)c1ccc2nc(N)c3cnn(C)c3c2c1` [Example 14, Phenyl 2-(4-amino-1-methyl-1H-pyrazolo[4,3-c]quinoline-8-carbonyl)-1-methyl-2-((5-(trifluoromethyl)pyridin-2-yl)methyl)hydrazine-1-carboxylate] displayed a CC50 in assay [1] of less than 100 nM. Besides, in assay [2], the EC50 is 1 to 5 nM. Further, the “EC50 selectivity (SDMA assay)” value in assay [2] (SDMA assay) amounted to 148.
`Cn1ncc2c(N)nc3ccc(C(=O)N(Cc4ccc(C(F)(F)F)c(F)c4)N4CCCC4=O)cc3c21` [Example 15, 4-amino-N-(3-fluoro-4-(trifluoromethyl)benzyl)-1-methyl-N-(2-oxopyrrolidin-1-yl)-1H-pyrazolo[4,3-c]quinoline-8-carboxamide] registered a CC50 in assay [1] of less than 100 nM. The EC50 in assay [2] (setting [3]) was 1 to 5 nM. For the same compound, the “EC50 selectivity (SDMA assay)” value in assay [2] (SDMA assay) came to 23.
The matching figures for `COc1ccc(CN(C(=O)c2ccc3nc(N)c4cnn(C)c4c3c2)N(C)C(C)=O)c(F)c1` [Example 16, N′-acetyl-4-amino-N-(2-fluoro-4-methoxybenzyl)-N′,1-dimethyl-1H-pyrazolo[4,3-c]quinoline-8-carbohydrazide]: less than 100 nM, less than 1 nM and 306.
Taken in the same sequence, the figures for `Cn1ncc2c(N)nc3ccc(C(=O)N(Cc4ccc(C(F)(F)F)cn4)N4CC5(CCC5)OC4=O)cc3c21` [Example 17, 4-amino-1-methyl-N-(6-oxo-5-oxa-7-azaspiro[3.4]octan-7-yl)-N-[[5-(trifluoromethyl)-2-pyridyl]methyl]pyrazolo[4,3-c]quinoline-8-carboxamide] were less than 100 nM, less than 1 nM and 502.
Take `CC(=O)N(C)N(Cc1ccn(-c2cccc(F)c2)n1)C(=O)c1ccc2nc(N)c3cnn(C)c3c2c1` [Example 435, N′-acetyl-4-amino-N-((1-(3-fluorophenyl)-1H-pyrazol-3-yl)methyl)-N′,1-dimethyl-1H-pyrazolo[4,3-c]quinoline-8-carbohydrazide]: the CC50 in assay [1] was less than 100 nM.
The same measure, in the same setting: to `CC(=O)N(C)N(Cc1ccn(-c2ccccc2F)n1)C(=O)c1ccc2nc(N)c3cnn(C)c3c2c1` [Example 436, N′-acetyl-4-amino-N-((1-(2-fluorophenyl)-1H-pyrazol-3-yl)methyl)-N′,1-dimethyl-1H-pyrazolo[4,3-c]quinoline-8-carbohydrazide] belongs less than 100 nM; to `CC(=O)N(C)N(Cc1ccn(-c2ccc(F)cc2F)n1)C(=O)c1ccc2nc(N)c3cnn(C)c3c2c1` [Example 440, N′-acetyl-4-amino-N-((1-(2,4-difluorophenyl)-1H-pyrazol-3-yl)methyl)-N′,1-dimethyl-1H-pyrazolo[4,3-c]quinoline-8-carbohydrazide], less than 100 nM.
Still for that read-out and setting: next, `CC(=O)N(C)N(Cc1ccn(-c2c(F)cccc2F)n1)C(=O)c1ccc2nc(N)c3cnn(C)c3c2c1` [Example 441, N′-acetyl-4-amino-N-((1-(2,6-difluorophenyl)-1H-pyrazol-3-yl)methyl)-N′,1-dimethyl-1H-pyrazolo[4,3-c]quinoline-8-carbohydrazide]: less than 100 nM; `CN(C(=O)C1CC1)N(Cc1ncc(C(F)(F)F)cc1Cl)C(=O)c1ccc2nc(N)c3cnn(C)c3c2c1` [Example 446, 4-amino-N-((3-chloro-5-(trifluoromethyl)pyridin-2-yl)methyl)-N′-(cyclopropanecarbonyl)-N′,1-dimethyl-1H-pyrazolo[4,3-c]quinoline-8-carbohydrazide]: less than 100 nM.
